Assay results: patent publication EP0527889B1, “QUINOLIZINONE TYPE COMPOUNDS” (priority 1990, dated 1991)
Where a name gives a salt, the structure may show the parent alone.

Assays:
[1] = system: Staphylococcus aureus NCTC 10649; assay: In vivo antibacterial activity in mice (protection from lethal intraperitoneal infection); details: NCTC10649, 144 h, S. aureus, CF-1 female mice infected intraperitoneally with 100 times the LD50, treated at 1 and 5 hr after infection, cumulative mortalities on the sixth day
Experimental: (§1) The in vivo antibacterial activity of the compounds of the present invention was determined as follows: Aqueous solutions of the test compounds were prepared by dissolving the compound in distilled water, except for the compounds of examples 169 and 170 which were dissolved in a solution of 2% DMSO in distilled water.
(§2) After 18 hr incubation, a culture of Staphylococcus aureus NCTC 10649 was serially diluted by using 10-fold dilutions in 5% (w/v) hog gastric mucin. Cultures (0.5 mL) in a dilution from 10^-1 to 10^-8 were injected intraperitoneally into CF-1 female mice weighing approximately 20g. The LD50 (median lethal dose) for the test organism was calculated from the cumulative mortalities on the sixth day by the using the Reed and Muench procedure (Reed, L.J., and H. Muench, Amer. J. Hygiene, 27, 493 (1938)).
(§3) The above 18 hr culture was diluted in 5% (w/v) hog gastric mucin to obtain 100 times the LD50, and 0.5 mL was injected intraperitoneally into mice. The mice were treated subcutaneously (sc) or orally (po) with a specific amount of the test compound divided equally to be administered at 1 and 5 hr after infection. A group of 10 animals each for at least three dose levels was thus treated, and the deaths were recorded daily for 6 days. Ten mice were left untreated as infection control. ED50 values were calculated from the cumulative mortalities on the sixth day after infection by using the trimmed version of the Logit method ( Hamilton, M.A., R.C. Russo, and R.V. Thurston, Environ. Sci. Technol. 11, 714 (1977)).

Escherichia coli JUHL [2] = assay: as above; details: 144 h, E. coli JUHL, mice infected intraperitoneally, treated at 1 and 5 hr after infection, cumulative mortalities on the sixth day
Experimental: as §1, §2, §3
The LD50 for Escherichia coli JUHL was determined in a manner similar to that above for S. aureus. The 18 hr cultures of this organism were also prepared for po and sc testing in mice, from which ED50 values were calculated. Positive controls were run with temafloxacin as the test compound, for which ED50 values were also calculated.

[3] = system: Staphylococcus aureus 642A; assay: In vitro antibacterial activity, MIC by agar dilution; format: cell-based; details: BHI agar, 35-37°C, 20-24 hours, unit assumed
Procedure, shortened: (§4)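 Agar dilution; ~10^4 CFU/spot by replicator (1:100 dilution, 1:10 for slow growers); 35–37°C, ~20–24 h. MIC = lowest conc. with no growth (slight haze or sparse colonies allowed) vs drug-free BHI control; ciprofloxacin control.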

[4] = system: Pseudomonas aeruginosa K799/WT; assay: as above; format: cell-based; details: BHI agar, 35-37°C, 20-24 hours, unit assumed
Procedure, shortened: as §4

[5] = system: Staphylococcus aureus A5177; assay: as above; format: cell-based; details: BHI agar, 35-37°C, 20-24 hours, unit assumed
Procedure, shortened: as §4

Escherichia coli DC-2 = assay: as above; format: cell-based; details: BHI agar, 35-37°C, 20-24 hours, unit assumed
Procedure, shortened: as §4

[6] = system: Enterobacter aerogenes ATCC 13048; assay: as above; format: cell-based; details: BHI agar, 35-37°C, 20-24 hours, unit assumed
Procedure, shortened: as §4

[7] = system: Staphylococcus aureus A-5278; assay: as above; format: cell-based; details: BHI agar, 35-37°C, 20-24 hours, unit assumed
Procedure, shortened: as §4

[8] = system: Staphylococcus aureus NCTC 10649; assay: as above; format: cell-based; details: BHI agar, 35-37°C, 20-24 hours, unit assumed
Procedure, shortened: as §4

[9] = system: Pseudomonas aeruginosa 2862; assay: as above; format: cell-based; details: BHI agar, 35-37°C, 20-24 hours, unit assumed
Procedure, shortened: as §4

[10] = system: Streptococcus agalactaciae CMX 508; assay: as above; format: cell-based; details: BHI agar, 35-37°C, 20-24 hours, unit assumed
Procedure, shortened: as §4

Escherichia coli KNK 437 = assay: as above; format: cell-based; details: BHI agar, 35-37°C, 20-24 hours, unit assumed
Procedure, shortened: as §4

[11] = system: Pseudomonas aeruginosa K799/61; assay: as above; format: cell-based; details: BHI agar, 35-37°C, 20-24 hours, unit assumed
Procedure, shortened: as §4

[12] = system: Providencia stuartii CMX 640; assay: as above; format: cell-based; details: BHI agar, 35-37°C, 20-24 hours, unit assumed
Procedure, shortened: as §4

[13] = system: Pseudomonas aeruginosa 5263; assay: as above; format: cell-based; details: BHI agar, 35-37°C, 20-24 hours, unit assumed
Procedure, shortened: as §4

[14] = system: Pseudomonas aeruginosa A5007; assay: as above; format: cell-based; details: BHI agar, 35-37°C, 20-24 hours, unit assumed
Procedure, shortened: as §4

[15] = system: Micrococcus luteus ATCC 4698; assay: as above; format: cell-based; details: BHI agar, 35-37°C, 20-24 hours, unit assumed
Procedure, shortened: as §4

[16] = system: Streptococcus bovis A5169; assay: as above; format: cell-based; details: BHI agar, 35-37°C, 20-24 hours, unit assumed
Procedure, shortened: as §4

Escherichia coli JUHL [17] = assay: as above; format: cell-based; details: BHI agar, 35-37°C, 20-24 hours, unit assumed
Procedure, shortened: as §4

[18] = system: Streptococcus pyrogenes 2548 INDUC; assay: as above; format: cell-based; details: BHI agar, 35-37°C, 20-24 hours, unit assumed
Procedure, shortened: as §4

Pseudomonas cepacia 296I = assay: as above; format: cell-based; details: BHI agar, 35-37°C, 20-24 hours, unit assumed
Procedure, shortened: as §4

[19] = system: Acinetobacter calcoaceticus CMX 669; assay: as above; format: cell-based; details: BHI agar, 35-37°C, 20-24 hours, unit assumed
Procedure, shortened: as §4

[20] = system: Streptococcus pyrogenes CONST; assay: as above; format: cell-based; details: BHI agar, 35-37°C, 20-24 hours, unit assumed
Procedure, shortened: as §4

Escherichia coli H560 = assay: as above; format: cell-based; details: BHI agar, 35-37°C, 20-24 hours, unit assumed
Procedure, shortened: as §4

[21] = system: Streptococcus pyrogenes EES61; assay: as above; format: cell-based; details: BHI agar, 35-37°C, 20-24 hours, unit assumed
Procedure, shortened: as §4

Escherichia coli SS = assay: as above; format: cell-based; details: BHI agar, 35-37°C, 20-24 hours, unit assumed
Procedure, shortened: as §4

[22] = system: Staphylococcus aureus 1775; assay: as above; format: cell-based; details: BHI agar, 35-37°C, 20-24 hours, unit assumed
Procedure, shortened: as §4

[23] = system: Staphylococcus aureus CMX 553; assay: as above; format: cell-based; details: BHI agar, 35-37°C, 20-24 hours, unit assumed
Procedure, shortened: as §4

[24] = system: Staphylococcus aureus ATCC 6538P; assay: as above; format: cell-based; details: BHI agar, 35-37°C, 20-24 hours, unit assumed
Procedure, shortened: as §4

[25] = system: Pseudomonas aeruginosa BMH10; assay: as above; format: cell-based; details: BHI agar, 35-37°C, 20-24 hours, unit assumed
Procedure, shortened: as §4

[26] = system: Klebsiella pneumoniae ATCC 8045; assay: as above; format: cell-based; details: BHI agar, 35-37°C, 20-24 hours, unit assumed
Procedure, shortened: as §4

[27] = system: Micrococcus luteus ATCC 9341; assay: as above; format: cell-based; details: BHI agar, 35-37°C, 20-24 hours, unit assumed
Procedure, shortened: as §4

[28] = system: Staphylococcus epidermidis 3519; assay: as above; format: cell-based; details: BHI agar, 35-37°C, 20-24 hours, unit assumed
Procedure, shortened: as §4

[29] = system: Enterococcus faecium ATCC 8043; assay: as above; format: cell-based; details: BHI agar, 35-37°C, 20-24 hours, unit assumed
Procedure, shortened: as §4

| Structure (SMILES) | ED50 ([1]; po) | ED50 ([1]; sc) | ED50 (Escherichia coli JUHL [2]; po) | ED50 (Escherichia coli JUHL [2]; sc) | MIC values [3] | MIC values [4] | MIC values [5] | MIC values (Escherichia coli DC-2) | MIC values [6] | MIC values [7] | MIC values [8] | MIC values [9] | MIC values [10] | MIC values (Escherichia coli KNK 437) | MIC values [11] | MIC values [12] | MIC values [13] | MIC values [14] | MIC values [15] | MIC values [16] | also measured |
| --- | --- | --- | --- | --- | --- | --- | --- | --- | --- | --- | --- | --- | --- | --- | --- | --- | --- | --- | --- | --- | --- |
| C[C@H](N)C(=O)NC1CCN(c2nc3c(-c4ccc(F)cc4F)cc(C(=O)O)c(=O)n3cc2F)C1 (stereo partly drawn) [Example 167, 2-(3-(N-(S)-Alanyl)aminopyrrolidin-1-yl)-9-(2,4-difluorophenyl)-3-fluoro-6H-6-oxopyrido[1,2-a]pyrimidine-7-carboxylic acid hydrochloride] | 14.4 mg/kg | 2.7 mg/kg | 16.6 mg/kg | < 2.5 mg/kg | 3.1 µg/mL | 6.2 µg/mL | 3.1 µg/mL | 25 µg/mL | 3.1 µg/mL | 1.56 µg/mL | 0.78 µg/mL | > 100 µg/mL | 6.2 µg/mL | 25 µg/mL | 1.56 µg/mL | 100 µg/mL | > 100 µg/mL | 6.2 µg/mL | 50 µg/mL | 12.5 µg/mL | MIC values (Escherichia coli JUHL [17]): 1.56 µg/mL; MIC values [18]: 1.56 µg/mL; MIC values (Pseudomonas cepacia 296I): 100 µg/mL; MIC values [19]: 12.5 µg/mL; MIC values [20]: 3.1 µg/mL; MIC values (Escherichia coli H560): 1.56 µg/mL; MIC values [21]: 6.2 µg/mL; MIC values (Escherichia coli SS): 0.05 µg/mL; MIC values [22]: > 100 µg/mL; MIC values [23]: 6.2 µg/mL; MIC values [24]: 0.78 µg/mL; MIC values [25]: 12.5 µg/mL; MIC values [26]: 3.1 µg/mL; MIC values [27]: 50 µg/mL; MIC values [28]: 3.1 µg/mL; MIC values [29]: 12.5 µg/mL |
| C[C@H](N)C(=O)N[C@@H](C)C(=O)NC1CCN(c2nc3c(-c4ccc(F)cc4F)cc(C(=O)O)c(=O)n3cc2F)C1 (stereo partly drawn) [Example 168, 2-(3-(N-(S)-Alanyl-(S)-alanyl)aminopyrrolidin-1-yl)-9-(2,4-difluorophenyl)-3-fluoro-6H-6-oxopyrido[1,2-a]pyrimidine-7-carboxylic acid hydrochloride] | 3 mg/kg | 2.8 mg/kg | 14.3 mg/kg | < 2.5 mg/kg | 3.1 µg/mL | 6.2 µg/mL | 3.1 µg/mL | 25 µg/mL | 3.1 µg/mL | 3.1 µg/mL | 0.78 µg/mL | > 100 µg/mL | 6.2 µg/mL | 12.5 µg/mL | 1.56 µg/mL | 100 µg/mL | > 100 µg/mL | 12.5 µg/mL | 50 µg/mL | 12.5 µg/mL | MIC values (Escherichia coli JUHL [17]): 0.78 µg/mL; MIC values [18]: 1.56 µg/mL; MIC values (Pseudomonas cepacia 296I): > 100 µg/mL; MIC values [19]: 12.5 µg/mL; MIC values [20]: 3.1 µg/mL; MIC values (Escherichia coli H560): 0.78 µg/mL; MIC values [21]: 6.2 µg/mL; MIC values (Escherichia coli SS): 0.05 µg/mL; MIC values [22]: > 100 µg/mL; MIC values [23]: 6.2 µg/mL; MIC values [24]: 0.78 µg/mL; MIC values [25]: 3.1 µg/mL; MIC values [26]: 3.1 µg/mL; MIC values [27]: 50 µg/mL; MIC values [28]: 3.1 µg/mL; MIC values [29]: 12.5 µg/mL |
| C[C@H]1C[C@H](N)CN1c1nc2c(-c3ccc(F)cc3F)cc(C(=O)O)c(=O)n2cc1F [Example 171, 2-((2S,4S)-4-Amino-2-methylpyrrolidin-1-yl)-9-(2,4-difluorophenyl)-3-fluoro-6H-6-oxopyrido[1,2-a]pyrimidine-7-carboxylic acid hydrochloride] | 12.8 mg/kg | > 8 mg/kg | > 20 mg/kg | 4.8 mg/kg | 0.2 µg/mL | 0.39 µg/mL | 0.1 µg/mL | 0.78 µg/mL | 0.1 µg/mL | 0.1 µg/mL | 0.1 µg/mL | 50 µg/mL | 0.78 µg/mL | 0.39 µg/mL | 0.05 µg/mL | 6.2 µg/mL | 50 µg/mL | 0.39 µg/mL | 0.78 µg/mL | 1.56 µg/mL | MIC values (Escherichia coli JUHL [17]): 0.02 µg/mL; MIC values [18]: 0.39 µg/mL; MIC values (Pseudomonas cepacia 296I): 6.2 µg/mL; MIC values [19]: 0.05 µg/mL; MIC values [20]: 0.78 µg/mL; MIC values (Escherichia coli H560): 0.02 µg/mL; MIC values [21]: 0.78 µg/mL; MIC values (Escherichia coli SS): 0.001 µg/mL; MIC values [22]: 50 µg/mL; MIC values [23]: 0.2 µg/mL; MIC values [24]: 0.1 µg/mL; MIC values [25]: 0.2 µg/mL; MIC values [26]: 0.01 µg/mL; MIC values [27]: 3.1 µg/mL; MIC values [28]: 0.2 µg/mL; MIC values [29]: 0.78 µg/mL |
